Results as given in patent US6610733B2, “Optically active chroman and thiochroman derivatives” (Chugai Seiyaku Kabushiki Kaisha, priority 1999, dated 2003).

Tested on: estradiol-induced increase in uterine weight
Experiment: Anti-estrogenic activity (oral administration): inhibition of estradiol-induced increase in uterine weight in ovariectomized mice
Assay type: in vivo, mice (ICR)
Conditions: ovariectomized mice given 17β-estradiol-benzoate 0.1 μg/mouse s.c. for 3 days, test compound 10 mg/kg p.o., once a day, uterine weight 24 hours after last administration
Procedure: Test compounds were assayed for their oral anti-estrogenic activity in the following manner. In this experiment, the compounds prepared in Examples 2 and 3 were used as test compounds and the corresponding racemic mixture (10-[(3RS,4RS)-7-hydroxy-3-(4-hydroxyphenyl)-3-methylthiochroman-4-yl]-2-(4,4,5,5,5-pentafluoropentyl)decanoic acid was used as a control compound. This control compound was synthesized according to Reaction Schemes 1 to 7 mentioned above.
In this experiment, each of the test and control compounds was suspended in 5% arabic gum solution and orally administered for 3 days on a once-a-day basis. After 24 hours from the last administration, the test animals were sacrificed and the uteri were removed and weighed.

Structure (SMILES)	Inhibition (%) (10 mg/kg)	Inhibition (%)
C[C@@]1(c2ccc(O)cc2)CSc2cc(O)ccc2[C@@H]1CCCCCCCCC(CCCC(F)(F)C(F)(F)F)C(=O)O (single isomer, unassigned) [Example 10, Peak 2]	78	–
C[C@@]1(c2ccc(O)cc2)CSc2cc(O)ccc2[C@@H]1CCCCCCCCC(CCCC(F)(F)C(F)(F)F)C(=O)O (mixture of isomers) [10-[(3RS,4RS)-7-hydroxy-3-(4-hydroxyphenyl)-3-methylthiochroman-4-yl]-2-(4,4,5,5,5-pentafluoropentyl)decanoic acid, reference compound]	–	75
C[C@@]1(c2ccc(O)cc2)CSc2cc(O)ccc2[C@@H]1CCCCCCCCC(CCCC(F)(F)C(F)(F)F)C(=O)O (single isomer, unassigned) [Example 10, Peak 1]	87	–
C[C@]1(c2ccc(O)cc2)CSc2cc(O)ccc2[C@H]1CCCCCCCCC(CCCC(F)(F)C(F)(F)F)C(=O)O (stereo partly drawn) [Example 3, 10-[(3S,4S)-7-Hydroxy-3-(4-hydroxyphenyl)-3-methylthiochroman-4-yl]-2-(4,4,5,5,5-pentafluoropentyl)decanoic Acid]	–	69
C[C@@]1(c2ccc(O)cc2)CSc2cc(O)ccc2[C@@H]1CCCCCCCCC(CCCC(F)(F)C(F)(F)F)C(=O)O (stereo partly drawn) [Example 2, 10-[(3R,4R)-7-Hydroxy-3-(4-hydroxyphenyl)-3-methylthiochroman-4-yl]-2-(4,4,5,5,5-pentafluoropentyl)decanoic Acid]	–	90
